Laboratory results as given in ChEMBL document CHEMBL1201862, “PubChem BioAssay data set” (2004).
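Compound exposure: 48 hours, 5 concentrations, 96-well plates. GI50 is the concentration that inhibits growth by half.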 Active and inactive are the calls of the source. Rule as the data show it: active = GI50 up to about 1.1 µM and inactive = higher.

Assays:
Assay in all cases: NCI anticancer screen, dose series, 48 h
CAKI-1 = test system: CAKI-1
TK-10 = test system: TK-10
786-0 = test system: 786-0
OVCAR-4 = test system: OVCAR-4
OVCAR-3 = test system: OVCAR-3
M14 = test system: M14
HOP-92 = test system: HOP-92
HT-29 = test system: HT-29
MCF7 = test system: MCF7
A549 = test system: A549
T47D = test system: T47D
SNB-19 = test system: SNB-19
UACC-257 = test system: UACC-257
IGROV-1 = test system: IGROV-1
MOLT-4 = test system: MOLT-4
NCI-H23 = test system: NCI-H23
COLO 205 = test system: COLO 205
MDA-MB-435 = test system: MDA-MB-435
SK-MEL-28 = test system: SK-MEL-28
SW-620 = test system: SW-620

Measured: GI50

COC(=O)C(=O)C(C(=O)C(=O)Nc1ccccc1C(C)=O)c1nc2ccc(C(=O)c3ccccc3)cc2nc1O (centres undefined)
inactive: CAKI-1 25.9 µM | TK-10 > 100 µM | 786-0 > 100 µM | OVCAR-4 > 100 µM | OVCAR-3 73.6 µM | M14 > 100 µM | HOP-92 75 µM | HT-29 77.8 µM | MCF7 19.4 µM | A549 > 100 µM | T47D 56.4 µM | SNB-19 52 µM | UACC-257 > 100 µM | IGROV-1 20.2 µM | MOLT-4 56.2 µM | NCI-H23 35.2 µM

S=C1Nc2ccccc2SC1c1ccccc1 (centres undefined)
inactive: CAKI-1 > 100 µM | COLO 205 > 100 µM | TK-10 56.6 µM | 786-0 34.9 µM | OVCAR-4 46 µM | OVCAR-3 30.5 µM | MDA-MB-435 > 100 µM | M14 > 100 µM | HT-29 > 100 µM | MCF7 > 100 µM | A549 > 100 µM | T47D 72.6 µM | SNB-19 39 µM | SK-MEL-28 > 100 µM | UACC-257 > 100 µM | IGROV-1 > 100 µM | MOLT-4 > 100 µM | NCI-H23 74.6 µM

O=C1c2cccnc2S(=O)(=O)N1c1ccc(Br)cc1
inactive: CAKI-1 > 100 µM | COLO 205 > 100 µM | TK-10 > 100 µM | 786-0 > 100 µM | OVCAR-4 > 100 µM | OVCAR-3 > 100 µM | MDA-MB-435 > 100 µM | M14 > 100 µM | SW-620 > 100 µM | HOP-92 99.8 µM | HT-29 > 100 µM | A549 > 100 µM | T47D > 100 µM | SNB-19 75.7 µM | SK-MEL-28 > 100 µM | UACC-257 > 100 µM | IGROV-1 > 100 µM | MOLT-4 > 100 µM | NCI-H23 > 100 µM

CCOP(=O)(Cc1ccc(CP(=O)(OCC)OCC)n1C)OCC
inactive: CAKI-1 > 100 µM | COLO 205 > 100 µM | TK-10 > 100 µM | 786-0 > 100 µM | OVCAR-4 > 100 µM | OVCAR-3 > 100 µM | M14 > 100 µM | SW-620 > 100 µM | HOP-92 > 100 µM | HT-29 > 100 µM | A549 > 100 µM | SNB-19 > 100 µM | SK-MEL-28 > 100 µM | UACC-257 > 100 µM | IGROV-1 > 100 µM | MOLT-4 > 100 µM | NCI-H23 > 100 µM

C[C@H]1ON2CCC[C@@H]2[C@@H]1C(=O)N1C2CC3CCC2(CS1(=O)=O)C3(C)C (some centres undefined)
inactive: CAKI-1 > 100 µM | COLO 205 > 100 µM | TK-10 > 100 µM | 786-0 > 100 µM | OVCAR-4 > 100 µM | OVCAR-3 > 100 µM | MDA-MB-435 > 100 µM | M14 > 100 µM | SW-620 > 100 µM | HT-29 > 100 µM | MCF7 > 100 µM | A549 > 100 µM | T47D > 100 µM | SNB-19 > 100 µM | SK-MEL-28 > 100 µM | UACC-257 > 100 µM | IGROV-1 > 100 µM | NCI-H23 > 100 µM

Cc1ccc(-n2nnc3c(NNc4ccccc4)n[nH]c(=O)c32)cc1
inactive: CAKI-1 > 100 µM | COLO 205 75 µM | TK-10 28.1 µM | 786-0 67.3 µM | OVCAR-4 36.9 µM | MDA-MB-435 74.6 µM | M14 > 100 µM | HOP-92 23.1 µM | HT-29 57.9 µM | MCF7 35.3 µM | A549 55.6 µM | SNB-19 59 µM | SK-MEL-28 > 100 µM | UACC-257 > 100 µM | MOLT-4 44 µM | NCI-H23 72.1 µM

O=C1CN(c2cccc(C(F)(F)F)c2)C(=O)CN1NCNN1CC(=O)N(c2cccc(C(F)(F)F)c2)CC1=O
inactive: COLO 205 > 100 µM | TK-10 > 100 µM | 786-0 > 100 µM | MDA-MB-435 > 100 µM | M14 > 100 µM | SW-620 > 100 µM | HT-29 > 100 µM | MCF7 > 100 µM | A549 > 100 µM | T47D > 100 µM | SNB-19 > 100 µM | SK-MEL-28 > 100 µM | UACC-257 > 100 µM | IGROV-1 > 100 µM | MOLT-4 > 100 µM

CN(C)CCn1c(=O)oc2cc(C(=O)CN3CCOCC3)ccc21
inactive: CAKI-1 > 100 µM | COLO 205 > 100 µM | TK-10 > 100 µM | 786-0 > 100 µM | OVCAR-3 > 100 µM | MDA-MB-435 > 100 µM | M14 > 100 µM | SW-620 > 100 µM | HT-29 > 100 µM | MCF7 > 100 µM | SNB-19 > 100 µM | SK-MEL-28 > 100 µM | UACC-257 > 100 µM | IGROV-1 > 100 µM | MOLT-4 > 100 µM | NCI-H23 > 100 µM

C1=N\CCN2CCN(CC/N=C\c3ccc(cc3)OCc3cccc(n3)COc3ccc/1cc3)CC2
inactive: COLO 205 > 50 µM | TK-10 > 50 µM | 786-0 > 50 µM | OVCAR-4 > 50 µM | OVCAR-3 28.8 µM | MDA-MB-435 > 50 µM | M14 > 50 µM | SW-620 > 50 µM | HOP-92 40.4 µM | HT-29 > 50 µM | MCF7 > 50 µM | A549 > 50 µM | SNB-19 > 50 µM | SK-MEL-28 > 50 µM | UACC-257 > 50 µM | IGROV-1 > 50 µM | MOLT-4 > 50 µM | NCI-H23 > 50 µM

O=[N+]([O-])c1cccc(C2ON2C2CCCCC2)c1 (centres undefined)
inactive: CAKI-1 24.2 µM | COLO 205 17.6 µM | TK-10 30.3 µM | 786-0 17.4 µM | OVCAR-4 17.8 µM | OVCAR-3 18.5 µM | M14 18.5 µM | SW-620 10 µM | HOP-92 45.9 µM | HT-29 11.5 µM | A549 30.1 µM | SNB-19 29.1 µM | SK-MEL-28 36.9 µM | UACC-257 21.6 µM | IGROV-1 20 µM | MOLT-4 18.3 µM | NCI-H23 24.7 µM

O=C(N/N=C/c1ccccc1)c1c(-c2cccnc2)cnc2ccccc12
inactive: CAKI-1 > 100 µM | COLO 205 > 100 µM | TK-10 > 100 µM | 786-0 > 100 µM | OVCAR-4 > 100 µM | OVCAR-3 > 100 µM | M14 > 100 µM | SW-620 59.6 µM | HOP-92 > 100 µM | HT-29 42.1 µM | MCF7 48.2 µM | A549 > 100 µM | SNB-19 > 100 µM | SK-MEL-28 > 100 µM | UACC-257 88.9 µM | IGROV-1 58.7 µM | MOLT-4 > 100 µM | NCI-H23 > 100 µM

CCSC12CC3c4cccc5c4C(CN5C(=O)c4ccccc4)CC3(O1)N(C)C2=O (centres undefined)
inactive: CAKI-1 92 µM | COLO 205 26.1 µM | TK-10 48.5 µM | 786-0 36.2 µM | OVCAR-4 36.9 µM | OVCAR-3 40.8 µM | MDA-MB-435 34.8 µM | M14 46.7 µM | SW-620 75.5 µM | HOP-92 24.1 µM | HT-29 42.6 µM | A549 38.9 µM | T47D 17.7 µM | SNB-19 87.3 µM | SK-MEL-28 48.4 µM | UACC-257 29.4 µM | IGROV-1 31.3 µM | MOLT-4 22.2 µM | NCI-H23 24.7 µM

O=C1C=CC(=O)c2cc(Sc3ccccc3)c(=O)c(Sc3ccccc3)cc21
inactive: CAKI-1 > 100 µM | COLO 205 73.3 µM | TK-10 64.3 µM | 786-0 88.5 µM | OVCAR-4 53.3 µM | OVCAR-3 50.9 µM | M14 > 100 µM | SW-620 > 100 µM | HOP-92 18.9 µM | HT-29 > 100 µM | A549 56.5 µM | SNB-19 > 100 µM | SK-MEL-28 95.1 µM | UACC-257 > 100 µM | IGROV-1 68.5 µM | MOLT-4 24 µM | NCI-H23 47.2 µM

NC(=O)c1cc2ccccc2c(/N=N/c2ccccc2)c1O
inactive: CAKI-1 23.5 µM | COLO 205 > 100 µM | TK-10 > 100 µM | 786-0 9.31 µM | OVCAR-4 19.4 µM | OVCAR-3 88.1 µM | MDA-MB-435 > 100 µM | M14 > 100 µM | SW-620 > 100 µM | HOP-92 12.5 µM | HT-29 7.87 µM | A549 > 100 µM | T47D > 100 µM | SNB-19 > 100 µM | SK-MEL-28 > 100 µM | UACC-257 > 100 µM | IGROV-1 > 100 µM | MOLT-4 76.7 µM | NCI-H23 > 100 µM

CC(C)=C[C@@H]1C[C@H](C)c2c(O)cc(C)c3c2C1=C(C)C(=O)C3=O [ELISABATIN A]
inactive: CAKI-1 16.6 µM | COLO 205 17.7 µM | TK-10 22.3 µM | 786-0 15.9 µM | OVCAR-4 10.9 µM | OVCAR-3 14.5 µM | MDA-MB-435 15.6 µM | M14 14 µM | SW-620 16.1 µM | HOP-92 13.4 µM | HT-29 19.4 µM | MCF7 22.8 µM | A549 10.1 µM | SNB-19 14.4 µM | SK-MEL-28 15.5 µM | UACC-257 17.6 µM | IGROV-1 16.7 µM | MOLT-4 28.6 µM | NCI-H23 13.5 µM

CN(C)C(=O)Oc1ccc[n+](C)c1 [PYRIDOSTIGMINE BROMIDE]
inactive: CAKI-1 > 100 µM | COLO 205 > 100 µM | TK-10 > 100 µM | 786-0 > 100 µM | OVCAR-4 > 100 µM | OVCAR-3 > 100 µM | MDA-MB-435 > 100 µM | SW-620 > 100 µM | HT-29 > 100 µM | MCF7 > 100 µM | T47D > 100 µM | SNB-19 > 100 µM | SK-MEL-28 > 100 µM | UACC-257 > 100 µM | IGROV-1 > 100 µM | MOLT-4 > 100 µM | NCI-H23 > 100 µM
